{"source": "ChEMBL document CHEMBL3885881", "about": "“DrugMatrix”", "species": "Rattus norvegicus", "test": "DrugMatrix - Regimen: Daily Repeat", "format": "toxicity, organism-based, Sprague-Dawley", "parameters": "regimen Daily Repeat, gender Male, age 6-8 weeks", "conditions": "in vivo, po, 0 mg/kg, route oral GAVAGE, dose level Control, vehicle .5 % CMC; for BASOPHIL / EOSINOPHIL / ERYTHROCYTE COUNT / HEMATOCRIT / HEMOGLOBIN / LEUKOCYTE COUNT / LYMPHOCYTE / MEAN CORPUSCULAR HEMOGLOBIN / MEAN CORPUSCULAR HEMOGLOBIN CONCENTRATION / MEAN CORPUSCULAR VOLUME / MONOCYTE / NEUTROPHIL / PLATELET COUNT / ABSOLUTE BASOPHIL / ABSOLUTE EOSINOPHIL / ABSOLUTE LYMPHOCYTE / ABSOLUTE MONOCYTE / ABSOLUTE SEGMENTED NEUTROPHIL: tissue Blood", "key": {"[1]": {"conditions": "72 h, tissue Plasma, time 3 day"}, "[2]": {"conditions": "120 h, tissue Plasma, time 5 day"}, "[3]": {"conditions": "2184 h, tissue Plasma, time 91 day"}}, "note": "Values joined by “and” are separate entries in the source; they are usually repeats but may differ in a detail not shown here. Equal values may be shown once.", "data": [{"smiles": "Clc1cc2c(cc1Cl)Oc1cc(Cl)c(Cl)cc1O2", "note": "[2,3,7,8-TETRACHLORODIBENZO-P-DIOXIN]", "values": [{"measurement": "BASOPHIL", "setting": "72 h, time 3 day", "value": 0.52, "unit": "%"}, {"measurement": "EOSINOPHIL", "setting": "72 h, time 3 day", "value": 0.48, "unit": "%"}, {"measurement": "ERYTHROCYTE COUNT", "setting": "72 h, time 3 day", "value": 6.68, "unit": "x10E6/uL"}, {"measurement": "HEMATOCRIT", "setting": "72 h, time 3 day", "value": 43.07, "unit": "%"}, {"measurement": "HEMOGLOBIN", "setting": "72 h, time 3 day", "value": 13.48, "unit": "G/DL"}, {"measurement": "LEUKOCYTE COUNT", "setting": "72 h, time 3 day", "value": 11.41, "unit": "x10E3/uL"}, {"measurement": "LYMPHOCYTE", "setting": "72 h, time 3 day", "value": 80.78, "unit": "%"}, {"measurement": "MEAN CORPUSCULAR HEMOGLOBIN", "setting": "72 h, time 3 day", "value": 20.2, "unit": "pg"}, {"measurement": "MEAN CORPUSCULAR HEMOGLOBIN CONCENTRATION", "setting": "72 h, time 3 day", "value": 31.32, "unit": "G/DL"}, {"measurement": "MEAN CORPUSCULAR VOLUME", "setting": "72 h, time 3 day", "value": 64.45, "unit": "fL"}, {"measurement": "MONOCYTE", "setting": "72 h, time 3 day", "value": 2.23, "unit": "%"}, {"measurement": "NEUTROPHIL", "setting": "72 h, time 3 day", "value": 14.73, "unit": "%"}, {"measurement": "PLATELET COUNT", "setting": "72 h, time 3 day", "value": 1225.83, "unit": "x10E3/uL"}, {"measurement": "ALANINE AMINOTRANSFERASE", "setting": "[1]", "value": 44.5, "unit": "u/L"}, {"measurement": "ALBUMIN", "setting": "[1]", "value": 3.62, "unit": "G/DL"}, {"measurement": "ALKALINE PHOSPHATASE", "setting": "[1]", "value": 404.5, "unit": "u/L"}, {"measurement": "ASPARTATE AMINOTRANSFERASE", "setting": "[1]", "value": 71.67, "unit": "u/L"}, {"measurement": "BLOOD UREA NITROGEN", "setting": "[1]", "value": 15, "unit": "mg/dL"}, {"measurement": "CHLORIDE", "setting": "[1]", "value": 103, "unit": "MEQ/L"}, {"measurement": "CHOLESTEROL", "setting": "[1]", "value": 96.83, "unit": "mg/dL"}, {"measurement": "CREATINE PHOSPHOKINASE", "setting": "[1]", "value": 236, "unit": "u/L"}, {"measurement": "CREATININE", "setting": "[1]", "value": 0.43, "unit": "mg/dL"}, {"measurement": "GLUCOSE", "setting": "[1]", "value": 186.83, "unit": "mg/dL"}, {"measurement": "PHOSPHORUS", "setting": "[1]", "value": 12.67, "unit": "mg/dL"}, {"measurement": "POTASSIUM", "setting": "[1]", "value": 7.1, "unit": "MEQ/L"}, {"measurement": "SODIUM", "setting": "[1]", "value": 147.33, "unit": "MEQ/L"}, {"measurement": "TOTAL BILIRUBIN", "setting": "[1]", "value": 0.52, "unit": "mg/dL"}, {"measurement": "TOTAL PROTEIN", "setting": "[1]", "value": 6.18, "unit": "G/DL"}, {"measurement": "ABSOLUTE BASOPHIL", "setting": "120 h, time 5 day", "value": 92, "unit": "cells/µL"}, {"measurement": "ABSOLUTE EOSINOPHIL", "setting": "120 h, time 5 day", "value": 52, "unit": "cells/µL"}, {"measurement": "ABSOLUTE LYMPHOCYTE", "setting": "120 h, time 5 day", "value": 6560, "unit": "cells/µL"}, {"measurement": "ABSOLUTE MONOCYTE", "setting": "120 h, time 5 day", "value": 160, "unit": "cells/µL"}, {"measurement": "ABSOLUTE SEGMENTED NEUTROPHIL", "setting": "120 h, time 5 day", "value": 1130, "unit": "cells/µL"}, {"measurement": "BASOPHIL", "setting": "120 h, time 5 day", "value": "1.14% and 0.92%"}, {"measurement": "EOSINOPHIL", "setting": "120 h, time 5 day", "value": "0.68% and 0.43%"}, {"measurement": "ERYTHROCYTE COUNT", "setting": "120 h, time 5 day", "value": "7.51 x10E6/uL and 7.03 x10E6/uL"}, {"measurement": "HEMATOCRIT", "setting": "120 h, time 5 day", "value": "46.04% and 46.55%"}, {"measurement": "HEMOGLOBIN", "setting": "120 h, time 5 day", "value": "15.62 G/DL and 14.32 G/DL"}, {"measurement": "LEUKOCYTE COUNT", "setting": "120 h, time 5 day", "value": "8.03 x10E3/uL and 12.22 x10E3/uL"}, {"measurement": "LYMPHOCYTE", "setting": "120 h, time 5 day", "value": "81.54% and 82.65%"}, {"measurement": "MEAN CORPUSCULAR HEMOGLOBIN", "setting": "120 h, time 5 day", "value": "20.84 pg and 20.35 pg"}, {"measurement": "MEAN CORPUSCULAR HEMOGLOBIN CONCENTRATION", "setting": "120 h, time 5 day", "value": "33.94 G/DL and 30.77 G/DL"}, {"measurement": "MEAN CORPUSCULAR VOLUME", "setting": "120 h, time 5 day", "value": "61.42 fL and 66.28 fL"}, {"measurement": "MONOCYTE", "setting": "120 h, time 5 day", "value": "2% and 2.28%"}, {"measurement": "NEUTROPHIL", "setting": "120 h, time 5 day", "value": "14.24% and 12.73%"}, {"measurement": "PLATELET COUNT", "setting": "120 h, time 5 day", "value": "1427.2 x10E3/uL and 1268.67 x10E3/uL"}, {"measurement": "ALANINE AMINOTRANSFERASE", "setting": "[2]", "value": "35.6 u/L and 44.5 u/L"}, {"measurement": "ALBUMIN", "setting": "[2]", "value": "3.64 G/DL and 3.73 G/DL"}, {"measurement": "ALKALINE PHOSPHATASE", "setting": "[2]", "value": "233 u/L and 340.83 u/L"}, {"measurement": "ASPARTATE AMINOTRANSFERASE", "setting": "[2]", "value": "81 u/L and 66.5 u/L"}, {"measurement": "BLOOD UREA NITROGEN", "setting": "[2]", "value": "12 mg/dL and 13.33 mg/dL"}, {"measurement": "CHLORIDE", "setting": "[2]", "value": "109.4 MEQ/L and 102.17 MEQ/L"}, {"measurement": "CHOLESTEROL", "setting": "[2]", "value": "47.6 mg/dL and 82.17 mg/dL"}, {"measurement": "CREATINE PHOSPHOKINASE", "setting": "[2]", "value": "183.2 u/L and 146.67 u/L"}, {"measurement": "CREATININE", "setting": "[2]", "value": "0.4 mg/dL and 0.35 mg/dL"}, {"measurement": "GLUCOSE", "setting": "[2]", "value": "134.6 mg/dL and 186.17 mg/dL"}, {"measurement": "LACTATE DEHYDROGENASE", "setting": "[2]", "value": 89.4, "unit": "u/L"}, {"measurement": "LIPASE", "setting": "[2]", "value": 17.2, "unit": "u/L"}, {"measurement": "PHOSPHORUS", "setting": "[2]", "value": "13.02 mg/dL and 11.83 mg/dL"}, {"measurement": "POTASSIUM", "setting": "[2]", "value": "7 MEQ/L and 6.47 MEQ/L"}, {"measurement": "SODIUM", "setting": "[2]", "value": "149.6 MEQ/L and 148.83 MEQ/L"}, {"measurement": "TOTAL PROTEIN", "setting": "[2]", "value": "6.06 G/DL and 6.27 G/DL"}, {"measurement": "URIC ACID", "setting": "[2]", "value": 1.04, "unit": "mg/dL"}, {"measurement": "ABSOLUTE BASOPHIL", "setting": "2184 h, time 91 day", "value": 130, "unit": "cells/µL"}, {"measurement": "ABSOLUTE EOSINOPHIL", "setting": "2184 h, time 91 day", "value": 70, "unit": "cells/µL"}, {"measurement": "ABSOLUTE LYMPHOCYTE", "setting": "2184 h, time 91 day", "value": 8670, "unit": "cells/µL"}, {"measurement": "ABSOLUTE MONOCYTE", "setting": "2184 h, time 91 day", "value": 160, "unit": "cells/µL"}, {"measurement": "ABSOLUTE SEGMENTED NEUTROPHIL", "setting": "2184 h, time 91 day", "value": 1530, "unit": "cells/µL"}, {"measurement": "BASOPHIL", "setting": "2184 h, time 91 day", "value": 1.13, "unit": "%"}, {"measurement": "EOSINOPHIL", "setting": "2184 h, time 91 day", "value": 0.66, "unit": "%"}, {"measurement": "ERYTHROCYTE COUNT", "setting": "2184 h, time 91 day", "value": 9.13, "unit": "x10E6/uL"}, {"measurement": "HEMATOCRIT", "setting": "2184 h, time 91 day", "value": 48.47, "unit": "%"}, {"measurement": "HEMOGLOBIN", "setting": "2184 h, time 91 day", "value": 16.56, "unit": "G/DL"}, {"measurement": "LEUKOCYTE COUNT", "setting": "2184 h, time 91 day", "value": 10.5, "unit": "x10E3/uL"}, {"measurement": "LYMPHOCYTE", "setting": "2184 h, time 91 day", "value": 81.63, "unit": "%"}, {"measurement": "MEAN CORPUSCULAR HEMOGLOBIN", "setting": "2184 h, time 91 day", "value": 18.16, "unit": "pg"}, {"measurement": "MEAN CORPUSCULAR HEMOGLOBIN CONCENTRATION", "setting": "2184 h, time 91 day", "value": 34.14, "unit": "G/DL"}, {"measurement": "MEAN CORPUSCULAR VOLUME", "setting": "2184 h, time 91 day", "value": 53.14, "unit": "fL"}, {"measurement": "MONOCYTE", "setting": "2184 h, time 91 day", "value": 1.53, "unit": "%"}, {"measurement": "NEUTROPHIL", "setting": "2184 h, time 91 day", "value": 14.71, "unit": "%"}, {"measurement": "PLATELET COUNT", "setting": "2184 h, time 91 day", "value": 1280.22, "unit": "x10E3/uL"}, {"measurement": "ALANINE AMINOTRANSFERASE", "setting": "[3]", "value": 28.89, "unit": "u/L"}, {"measurement": "ALBUMIN", "setting": "[3]", "value": 3.69, "unit": "G/DL"}, {"measurement": "ALKALINE PHOSPHATASE", "setting": "[3]", "value": 101.11, "unit": "u/L"}, {"measurement": "ASPARTATE AMINOTRANSFERASE", "setting": "[3]", "value": 70.67, "unit": "u/L"}, {"measurement": "BLOOD UREA NITROGEN", "setting": "[3]", "value": 16.78, "unit": "mg/dL"}, {"measurement": "CHLORIDE", "setting": "[3]", "value": 104.56, "unit": "MEQ/L"}, {"measurement": "CHOLESTEROL", "setting": "[3]", "value": 58.78, "unit": "mg/dL"}]}]}
